From patent publication US4066753A, “Neomycin and paromomycin derivatives” (Canadian Patents and Development Limited, priority 1976, dated 1978)
In brackets after ≈: the same amount, converted by molar mass.

Experiments:
Format in all cases: cell-based
P. aeruginosa 87442 = test: IN VITRO antibacterial activity against resistant organisms, P. aeruginosa 87442; details: Pseudomonas aeruginosa, 87442, 24 h
Description: (§1) In the Tables above MIC stands for minimum inhibitory concentration and
(§2) the results were obtained by providing halving dilutions of the test
(§3) compound in nutrient broth (concentrations usually range from 1/10,000 to
(§4) 1/320,000). These solutions are inoculated with the test organism,
(§5) incubated for 24 hours at 37° C and then examined for the presence
(§6) of growth. A test compound found to have a minimum inhibitory
(§7) concentration (MIC) of 1/160,000 is generally considered as a lead.

E. coli B1002 = test: IN VITRO antibacterial activity against resistant organisms, E. coli B1002; details: Escherichia coli, B1002, 24 h
Description: as §1, §2, §3, §4, §5, §6, §7

P. aeruginosa 377 = test: IN VITRO antibacterial activity against resistant organisms, P. aeruginosa 377; details: Pseudomonas aeruginosa, 377, 24 h
Description: as §1, §2, §3, §4, §5, §6, §7

E. coli B989 = test: IN VITRO antibacterial activity against resistant organisms, E. coli B989; details: Escherichia coli; resistant organism E. coli B989; nutrient broth, 24 hours at 37° C; read-out: MIC
Description: as §1, §2, §3, §4, §5, §6, §7

S. marcesceus = test: IN VITRO antibacterial activity, S. marcesceus; details: S. marcesceus; nutrient broth, 24 hours at 37° C; read-out: MIC
Description: as §1, §2, §3, §4, §5, §6, §7

S. pyogenes S = test: IN VITRO antibacterial activity, S. pyogenes S; details: Streptococcus pyogenes; S. pyogenes S; nutrient broth, 24 hours at 37° C; read-out: MIC
Description: as §1, §2, §3, §4, §5, §6, §7

K. pneumoniae = test: IN VITRO antibacterial activity, K. pneumoniae; details: Klebsiella pneumoniae; K. pneumoniae; nutrient broth, 24 hours at 37° C; read-out: MIC
Description: as §1, §2, §3, §4, §5, §6, §7

[1] = system: strains of E. Coli resistant to neomycin and paromomycin; test: Antibacterial activity against resistant E. Coli
Description: as §1, §2, §3, §4, §5, §6, §7

S. fecalis = test: IN VITRO antibacterial activity, S. fecalis; details: S. fecalis; nutrient broth, 24 hours at 37° C; read-out: MIC
Description: as §1, §2, §3, §4, §5, §6, §7

A. aerogenes = test: IN VITRO antibacterial activity, A. aerogenes; details: Klebsiella aerogenes; A. aerogenes; nutrient broth, 24 hours at 37° C; read-out: MIC
Description: as §1, §2, §3, §4, §5, §6, §7

P. mirabilis = test: IN VITRO antibacterial activity, P. mirabilis; details: Proteus mirabilis; P. mirabilis; nutrient broth, 24 hours at 37° C; read-out: MIC
Description: as §1, §2, §3, §4, §5, §6, §7

S. pullorm = test: IN VITRO antibacterial activity, S. pullorm; details: S. pullorm; nutrient broth, 24 hours at 37° C; read-out: MIC
Description: as §1, §2, §3, §4, §5, §6, §7

E. coli 198 = test: IN VITRO antibacterial activity, E. coli 198; details: Escherichia coli; E. coli 198; nutrient broth, 24 hours at 37° C; read-out: MIC
Description: as §1, §2, §3, §4, §5, §6, §7

E. coli B996 = test: IN VITRO antibacterial activity, E. coli B996 (resistant to Kanamycin and paromomycin); details: Escherichia coli, nutrient broth, 24 hours at 37° C
Description: as §1, §2, §3, §4, §5, §6, §7

S. pyogenes R = test: IN VITRO antibacterial activity, S. pyogenes R; details: Streptococcus pyogenes; S. pyogenes R; nutrient broth, 24 hours at 37° C; read-out: MIC
Description: as §1, §2, §3, §4, §5, §6, §7

P. aeruginosa = test: IN VITRO antibacterial activity, P. aeruginosa; details: Pseudomonas aeruginosa; P. aeruginosa; nutrient broth, 24 hours at 37° C; read-out: MIC
Description: as §1, §2, §3, §4, §5, §6, §7

[2] = system: strains of P. Aeruginosa resistant to neomycin B and paromomycin I; test: Antibacterial activity against resistant P. Aeruginosa
Description: as §1, §2, §3, §4, §5, §6, §7

S. pyogenes S B352 = test: IN VITRO antibacterial activity, S. pyogenes S B352; details: Streptococcus pyogenes, SB352, 24 h
Description: as §1, §2, §3, §4, §5, §6, §7

S. pullorum 358 = test: IN VITRO antibacterial activity, S. pullorum 358; details: Salmonella enterica, PULLORUM, 24 h
Description: as §1, §2, §3, §4, §5, §6, §7

[3] = system: Kl. pneumoniae 855 (ATCC 10081); test: IN VITRO antibacterial activity, Kl. pneumoniae 855 (ATCC 10081); details: Klebsiella pneumoniae, ATCC10081, nutrient broth, 24 hours at 37° C
Description: as §1, §2, §3, §4, §5, §6, §7

[4] = system: S. marcesceus 854 (ATCC → 103); test: IN VITRO antibacterial activity, S. marcesceus 854 (ATCC → 103); details: 24 h
Description: as §1, §2, §3, §4, §5, §6, §7

Pr. mirabilis 360 = test: IN VITRO antibacterial activity, Pr. mirabilis 360; details: Proteus mirabilis, 360, 24 h
Description: as §1, §2, §3, §4, §5, §6, §7

P. aeruginosa 359 = test: IN VITRO antibacterial activity, P. aeruginosa 359; details: Pseudomonas aeruginosa, 359, 24 h
Description: as §1, §2, §3, §4, §5, §6, §7

E. Coli 198 (ATCC 1/229) = test: IN VITRO antibacterial activity, E. Coli 198 (ATCC 1/229); details: Escherichia coli, ATCC1, 24 h
Description: as §1, §2, §3, §4, §5, §6, §7

S. pyogenes R 353 = test: IN VITRO antibacterial activity, S. pyogenes R 353; details: Streptococcus pyogenes, R353, 24 h
Description: as §1, §2, §3, §4, §5, §6, §7

S. fecalis 353 = test: IN VITRO antibacterial activity, S. fecalis 353; details: 24 h
Description: as §1, §2, §3, §4, §5, §6, §7

A. aerogenes 357 = test: IN VITRO antibacterial activity, A. aerogenes 357; details: Klebsiella aerogenes, 357, 24 h
Description: as §1, §2, §3, §4, §5, §6, §7

Pr. vulgaris 316 = test: IN VITRO antibacterial activity, Pr. vulgaris 316; details: Proteus vulgaris, 316, 24 h
Description: as §1, §2, §3, §4, §5, §6, §7

`NC[C@H]1O[C@H](O[C@H]2[C@H](O)[C@@H](O[C@H]3O[C@H](CO)[C@@H](O)[C@H](N)[C@H]3O)[C@H](N)C[C@@H]2N)[C@H](O)[C@@H](O)[C@@H]1O` [Kanamycin] was tested, and the MIC (P. aeruginosa 87442) was 0.8 µg/mL (≈ 1.65 µM), the MIC (E. coli B1002) was less than 100 µg/mL and the MIC (P. aeruginosa 377) was 3.2 µg/mL (≈ 6.6 µM). The MIC (E. coli B989) was 100 µg/mL (≈ 206 µM).
In the case of `NC[C@@H]1O[C@H](O[C@H]2[C@@H](O)[C@H](O[C@@H]3[C@@H](O)[C@H](N)C[C@H](N)[C@H]3O[C@H]3O[C@H](CO)[C@@H](O)[C@H](O)[C@H]3N)O[C@@H]2CN)[C@H](N)[C@@H](O)[C@@H]1O` [5"-amino-5"-deoxyparomomycin I], the MIC (S. marcesceus) is reported as 0.8 µg/mL (≈ 1.3 µM), the MIC (S. pyogenes S) is reported as less than 0.2 µg/mL and the MIC (K. pneumoniae) is reported as 0.8 µg/mL (≈ 1.3 µM). For the same molecule, the “antibacterial activity against resistant E. Coli” value [1] was “particularly effective”, the MIC (S. fecalis) was 6.4 µg/mL (≈ 10.4 µM) and the MIC (A. aerogenes) was 1.6 µg/mL (≈ 2.6 µM). For the same molecule, the MIC (P. mirabilis) was 1.6 µg/mL (≈ 2.6 µM), the MIC (S. pullorm) was 0.8 µg/mL (≈ 1.3 µM) and the MIC (E. coli 198) was 6.4 µg/mL (≈ 10.4 µM). For the same molecule, the MIC (E. coli B996) was 12.5 µg/mL (≈ 20.3 µM), the MIC (S. pyogenes R) was 0.4 µg/mL (≈ 0.651 µM) and the MIC (P. aeruginosa) was 12.5 µg/mL (≈ 20.3 µM). For the same molecule, the “antibacterial activity against resistant P. Aeruginosa” value [2] was “particularly effective”.
In the case of `NC[C@@H]1O[C@H](O[C@H]2[C@@H](O)[C@H](O[C@@H]3[C@@H](O)[C@H](N)C[C@H](N)[C@H]3O[C@H]3O[C@H](CN)[C@@H](O)[C@H](O)[C@H]3N)O[C@@H]2CO)[C@H](N)[C@@H](O)[C@@H]1O` [Neomycin B, neomycin B], the MIC (S. pyogenes S B352) is reported as less than 0.2 µg/mL, the MIC (S. pullorum 358) is reported as less than 0.2 µg/mL and the MIC [3] is reported as less than 0.2 µg/mL. For the same molecule, the MIC [4] was less than 0.2 µg/mL, the MIC (Pr. mirabilis 360) was 0.4 µg/mL (≈ 0.651 µM) and the MIC (P. aeruginosa 359) was 0.8 µg/mL (≈ 1.3 µM). The MIC (E. Coli 198 (ATCC 1/229)) was 0.8 µg/mL (≈ 1.3 µM), the MIC (S. pyogenes R 353) was less than 0.2 µg/mL and the MIC (S. fecalis 353) was 0.8 µg/mL (≈ 1.3 µM). The MIC (A. aerogenes 357) was less than 0.2 µg/mL and the MIC (Pr. vulgaris 316) was less than 0.2 µg/mL.
